The experiment relates to Panc02 murine pancreatic adenocarcinoma cells. The experiment in a line: hemi-splenectomy liver metastasis mouse model, 90 day survival. Format: in vivo, C57/B16 mice. Particulars: 28-day dosing scheme, followed 90 days.

Molecules are shown by their SMILES.

Description: Survival Proportions: 90 Day survival of all groups.
The inventors performed hemi-splenectomy with the injection of 2×10^6 Panc02 murine pancreatic adenocarcinoma cells on C57/B16 mice, aged 9-10 weeks to model metastasis of pancreatic tumor cells to the liver. Mice were divided into treatment groups and dosed with cyclophosphamide and GVAX vaccine as well as an oral IDO1 inhibitor PF-06840003, according to a 28-day dosing scheme.
An oral methocel vehicle was given as a placebo treatment. The IDO inhibitor PF-06840003 and oral methocel compounds were administered twice daily by oral gavage, starting on post-operative day 3 and extending through post-operative day 28. Cyclophosphamide was administered on post-operative day 3. GVAX vaccine was administered on post-operative days 4, 7, 14 and 21. Mice were followed for survival for 90 days.

Regarding `O=C1CC(c2c[nH]c3ccc(F)cc23)C(=O)N1` (stereo not shown) [PF-06840003], the survival result is “no significant effect on survival”.

The record behind these values is patent publication US20190365878A1, “PHARMACEUTICAL TREATMENTS FOR PREVENTING OR TREATING PANCREATIC CANCER” (THE JOHNS HOPKINS UNIVERSITY, priority 2016, published 2019).
